The source of these data is patent US10004732B2 (Novartis AG, priority 2014, dated 2018).

Counter-ions that a name gives are not always drawn.

One data set concerns the target mTOR (Homo sapiens, UniProt P42345). Description: Lanthascreen kinase binding assay, assay G. The conditions noted are these: read-out: Assay G mTOR IC50. (TR-FRET usually uses a lanthanide donor and a delayed reading to cut background.)
Another data set has as its target Vps34 (Homo sapiens, UniProt Q8NEB9). Description: Kinase Glo Luminescent Kinase Assay (Kglo), assay C. In kind it is biochemical. The note with it: read-out: Assay C VPS34 IC50. A general note: Kinase-Glo reads ATP consumption through a luciferase reaction.
For data set [1], the target named is T1, PI 3-kinase beta (Homo sapiens, UniProt P42338). In words: Kinase Glo Luminescent Kinase Assay (Kglo), assay B. The conditions noted are these: read-out: Assay B PI3Kβ IC50. The class given is biochemical.
Target sequence in this assay (P42338 whole entry): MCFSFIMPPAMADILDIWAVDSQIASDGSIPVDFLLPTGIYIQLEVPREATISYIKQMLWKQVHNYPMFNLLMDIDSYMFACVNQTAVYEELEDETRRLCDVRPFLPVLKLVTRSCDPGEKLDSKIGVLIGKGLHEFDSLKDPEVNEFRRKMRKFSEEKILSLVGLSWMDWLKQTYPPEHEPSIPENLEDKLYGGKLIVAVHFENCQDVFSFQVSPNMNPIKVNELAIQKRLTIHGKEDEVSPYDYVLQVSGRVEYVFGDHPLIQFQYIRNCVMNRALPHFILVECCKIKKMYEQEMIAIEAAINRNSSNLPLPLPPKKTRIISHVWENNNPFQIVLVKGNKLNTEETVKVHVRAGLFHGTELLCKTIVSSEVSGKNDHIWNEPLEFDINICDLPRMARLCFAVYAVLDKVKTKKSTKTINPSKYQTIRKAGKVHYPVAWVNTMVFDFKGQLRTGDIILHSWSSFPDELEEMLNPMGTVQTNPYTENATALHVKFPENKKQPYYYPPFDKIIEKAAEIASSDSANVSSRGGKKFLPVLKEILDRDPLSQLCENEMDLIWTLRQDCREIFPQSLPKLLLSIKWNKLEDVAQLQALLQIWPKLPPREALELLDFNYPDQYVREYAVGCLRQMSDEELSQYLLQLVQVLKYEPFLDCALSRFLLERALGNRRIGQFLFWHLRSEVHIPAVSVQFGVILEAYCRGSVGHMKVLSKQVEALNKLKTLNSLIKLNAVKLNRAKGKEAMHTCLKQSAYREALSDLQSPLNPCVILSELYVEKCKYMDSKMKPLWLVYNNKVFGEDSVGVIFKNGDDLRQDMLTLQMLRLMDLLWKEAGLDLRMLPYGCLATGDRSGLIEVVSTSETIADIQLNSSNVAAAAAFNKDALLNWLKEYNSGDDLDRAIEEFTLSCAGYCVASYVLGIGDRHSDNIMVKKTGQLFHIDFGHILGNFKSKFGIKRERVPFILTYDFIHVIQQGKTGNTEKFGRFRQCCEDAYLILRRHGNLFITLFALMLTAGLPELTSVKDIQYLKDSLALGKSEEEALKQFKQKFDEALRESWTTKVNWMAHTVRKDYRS
Target sequence in this assay (P27986 461-568 partner): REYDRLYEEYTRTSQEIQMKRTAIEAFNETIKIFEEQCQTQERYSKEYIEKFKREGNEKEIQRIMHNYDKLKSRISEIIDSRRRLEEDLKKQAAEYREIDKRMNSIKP
Experimental: Kinase Glo Luminescent Kinase Assay (Kglo) for Pb 3-Kinase Alpha (A), Pb 3-Kinase Beta (B), Vps34 (C), Pb 4-Kinase Beta (D)
The Kinase Glo Luminescent Kinase Assay (Promega, Madison/Wis., USA) is a homogeneous HTS method of measuring kinase activity by quantifying the amount of ATP remaining in solution following a kinase reaction.
L-α-phosphatidylinositol (PI), provided as 10 mg/ml solution in methanol, was transferred into a glass tube and dried under a nitrogen beam. It was then resuspended in 3% OctylGlucoside (1-0-n-octyl-beta-D-glucopyranoside) by vortexing and stored at 4° C. 5 μL of a mix of PI/OctylGlucoside with the PI 3-kinase alpha and PI 3-kinase beta subtypes, or Vps34 or PI 4-kinase beta were added. Kinase reactions were started by the addition of 5 μl of an ATP-mix containing in a final volume 10 μL 10 mM TRIS-HCl pH 7.5, 3 mM MgCl2, 50 mM NaCl, 0.05% CHAPS, 1 mM DTT and 1 μM ATP at room temperature.
All fits were performed with the program XLfit4 (ID Business Solutions, Guildford, UK).
For the next data set, the target named is PI 4-kinase beta (Homo sapiens, UniProt Q9UBF8). In words: Kinase Glo Luminescent Kinase Assay (Kglo), assay D. The class given is biochemical. The note with it: read-out: Assay D PI4Kβ IC50.
Data set [2] addresses T1, PI 3-kinase beta. In words: Cellular assay I1, p-Akt (S473) in Rat-1 cells, Surefire format. The class given is cell-based. The note with it: non-asterisked data: version I1 (Surefire format), Rat-1 cells; read-out: Assay I PI3Kβ IC50.
Target sequence in this assay (P42338 whole entry): as the sequence (P42338 whole entry) above
Target sequence in this assay (Q63787 whole entry partner): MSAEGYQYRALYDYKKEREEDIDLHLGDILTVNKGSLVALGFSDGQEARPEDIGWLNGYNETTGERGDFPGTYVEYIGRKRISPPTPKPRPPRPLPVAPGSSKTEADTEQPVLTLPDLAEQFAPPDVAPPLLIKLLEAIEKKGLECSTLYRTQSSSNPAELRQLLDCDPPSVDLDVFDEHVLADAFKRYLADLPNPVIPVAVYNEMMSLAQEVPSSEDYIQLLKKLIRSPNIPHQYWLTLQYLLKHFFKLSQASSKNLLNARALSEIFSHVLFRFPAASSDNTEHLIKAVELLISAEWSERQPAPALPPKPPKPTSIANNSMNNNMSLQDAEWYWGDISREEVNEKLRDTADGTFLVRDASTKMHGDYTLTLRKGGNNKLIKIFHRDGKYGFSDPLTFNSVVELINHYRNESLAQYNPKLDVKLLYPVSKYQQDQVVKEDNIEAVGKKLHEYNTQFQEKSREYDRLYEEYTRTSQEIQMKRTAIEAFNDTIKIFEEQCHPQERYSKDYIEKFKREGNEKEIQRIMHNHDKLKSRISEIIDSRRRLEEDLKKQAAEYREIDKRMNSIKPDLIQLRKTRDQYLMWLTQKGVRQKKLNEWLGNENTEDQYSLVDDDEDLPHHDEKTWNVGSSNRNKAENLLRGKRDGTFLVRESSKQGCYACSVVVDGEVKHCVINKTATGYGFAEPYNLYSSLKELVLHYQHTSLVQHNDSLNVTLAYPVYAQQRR
Text: Cellular Assays for PI 3-Kinase Alpha (H1), Beta (I1) and Delta (J1): Surefire Format
AlphaScreen (Amplified Luminescent Proximity Homogeneous Assay, ALPHA, Perkin Elmer) is a non-radioactive bead-based proximity assay technology to study biomolecular interactions in a homogenous microtiter plate format. The brand name SureFire denotes AlphaScreen assays that are adapted to quantify the phosphorylation of endogenous cellular proteins in cell lysates, by using matched antibody pairs, which consist of an anti-phospho-kinase and an anti-kinase antibody. The assay allows characterization of kinase signaling in cells as well as measurement of kinase inhibitor effects.
Using Rat-1 cells stably expressing myr-HA-tagged versions of the human PI3Kdelta, PI3Kalpha, or PI3Kbeta p110 catalytic subunit isoforms, the assay was developed as a two-plate protocol in a 384-well format.
For compound testing, the cells were seeded at a density of 4000 (Rat-1_PI3Kdelta), 7500 (Rat-1_PI3Kalpha), or 6200 (Rat-1_PI3Kbeta) cells in 20 μl complete growth medium into cell culture treated 384-well plates and were grown at 37° C./5% CO2/90% humidity for 24 h. Shortly before compound transfer, the complete medium was removed, 30 μl assay buffer (DMEM high glucose, 1×MEM NEAA, 10 mM HEPES, 2 mM L-glutamine, 0.1% (w/v) BSA) was added and 10 μl of the compound predilutions were transferred to the cells.
Data set [3] addresses T2, PI 3-kinase delta (Homo sapiens, UniProt O00329). In words: TR-FRET Adapta assay, assay F.
Target sequence in this assay (O00329 whole entry): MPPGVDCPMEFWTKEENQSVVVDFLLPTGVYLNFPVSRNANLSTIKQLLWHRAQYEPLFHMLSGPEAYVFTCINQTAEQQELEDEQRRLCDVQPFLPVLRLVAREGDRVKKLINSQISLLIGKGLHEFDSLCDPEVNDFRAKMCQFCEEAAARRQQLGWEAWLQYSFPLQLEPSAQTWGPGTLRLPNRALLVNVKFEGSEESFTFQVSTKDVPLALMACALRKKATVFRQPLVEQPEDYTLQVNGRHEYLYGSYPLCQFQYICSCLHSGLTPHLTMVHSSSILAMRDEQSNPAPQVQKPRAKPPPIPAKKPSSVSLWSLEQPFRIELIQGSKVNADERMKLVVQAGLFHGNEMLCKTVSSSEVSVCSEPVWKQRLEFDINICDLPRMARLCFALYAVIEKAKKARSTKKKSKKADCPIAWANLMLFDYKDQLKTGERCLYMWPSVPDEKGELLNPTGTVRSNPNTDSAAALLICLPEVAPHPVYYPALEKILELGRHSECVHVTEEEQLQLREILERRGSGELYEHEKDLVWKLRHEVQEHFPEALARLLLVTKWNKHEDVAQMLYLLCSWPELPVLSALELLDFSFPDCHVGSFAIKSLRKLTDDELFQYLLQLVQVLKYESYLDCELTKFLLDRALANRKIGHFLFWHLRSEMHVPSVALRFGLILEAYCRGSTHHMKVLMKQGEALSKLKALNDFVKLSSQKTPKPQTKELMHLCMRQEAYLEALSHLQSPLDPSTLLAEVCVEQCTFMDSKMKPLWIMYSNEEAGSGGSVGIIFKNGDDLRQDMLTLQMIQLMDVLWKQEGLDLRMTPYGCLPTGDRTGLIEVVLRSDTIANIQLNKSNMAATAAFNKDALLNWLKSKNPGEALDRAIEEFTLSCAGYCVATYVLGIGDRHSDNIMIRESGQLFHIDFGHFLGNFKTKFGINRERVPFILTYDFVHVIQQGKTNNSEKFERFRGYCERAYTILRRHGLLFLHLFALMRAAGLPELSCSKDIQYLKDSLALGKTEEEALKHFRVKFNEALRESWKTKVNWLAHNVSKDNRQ
Target sequence in this assay (P27986 461-568 partner): as the sequence (P27986 461-568 partner) above
The target of data set [4] is T2, PI 3-kinase delta. In words: Cellular assay J1, p-Akt (S473) in Rat-1 cells, Surefire format. In kind it is cell-based. The note with it: non-asterisked data: version J1 (Surefire format), Rat-1 cells; read-out: Assay J PI3Kδ IC50.
For another data set, the target named is PI 3-kinase alpha (Homo sapiens, UniProt P42336). Description: Kinase Glo Luminescent Kinase Assay (Kglo), assay A. In kind it is biochemical. The note with it: read-out: Assay A PI3Kα IC50.
Data set [5] in a line: Microsomal clearance assay (M). The conditions noted are these: intrinsic clearance in rat liver microsomes. (Liver microsomes are a subcellular fraction often used to study metabolism.)
Experimental: The experiments were performed in 96-well glass plates at 37° C. on an automated Tecan EVO platform. Test compounds at a concentration of 10 mM in pure DMSO were diluted 1:1000 in water to 10 μM. […] Reactions were initiated by the addition of 150 μL of a cofactor solution containing 2 mM NADPH.
Another data set deals with PI 3-kinase gamma (Homo sapiens, UniProt P48736). In words: TR-FRET Adapta assay, assay E. The class given is biochemical. The conditions noted are these: read-out: Assay E PI3Kγ IC50.
Sequence of PI 3-kinase gamma (P48736 whole entry): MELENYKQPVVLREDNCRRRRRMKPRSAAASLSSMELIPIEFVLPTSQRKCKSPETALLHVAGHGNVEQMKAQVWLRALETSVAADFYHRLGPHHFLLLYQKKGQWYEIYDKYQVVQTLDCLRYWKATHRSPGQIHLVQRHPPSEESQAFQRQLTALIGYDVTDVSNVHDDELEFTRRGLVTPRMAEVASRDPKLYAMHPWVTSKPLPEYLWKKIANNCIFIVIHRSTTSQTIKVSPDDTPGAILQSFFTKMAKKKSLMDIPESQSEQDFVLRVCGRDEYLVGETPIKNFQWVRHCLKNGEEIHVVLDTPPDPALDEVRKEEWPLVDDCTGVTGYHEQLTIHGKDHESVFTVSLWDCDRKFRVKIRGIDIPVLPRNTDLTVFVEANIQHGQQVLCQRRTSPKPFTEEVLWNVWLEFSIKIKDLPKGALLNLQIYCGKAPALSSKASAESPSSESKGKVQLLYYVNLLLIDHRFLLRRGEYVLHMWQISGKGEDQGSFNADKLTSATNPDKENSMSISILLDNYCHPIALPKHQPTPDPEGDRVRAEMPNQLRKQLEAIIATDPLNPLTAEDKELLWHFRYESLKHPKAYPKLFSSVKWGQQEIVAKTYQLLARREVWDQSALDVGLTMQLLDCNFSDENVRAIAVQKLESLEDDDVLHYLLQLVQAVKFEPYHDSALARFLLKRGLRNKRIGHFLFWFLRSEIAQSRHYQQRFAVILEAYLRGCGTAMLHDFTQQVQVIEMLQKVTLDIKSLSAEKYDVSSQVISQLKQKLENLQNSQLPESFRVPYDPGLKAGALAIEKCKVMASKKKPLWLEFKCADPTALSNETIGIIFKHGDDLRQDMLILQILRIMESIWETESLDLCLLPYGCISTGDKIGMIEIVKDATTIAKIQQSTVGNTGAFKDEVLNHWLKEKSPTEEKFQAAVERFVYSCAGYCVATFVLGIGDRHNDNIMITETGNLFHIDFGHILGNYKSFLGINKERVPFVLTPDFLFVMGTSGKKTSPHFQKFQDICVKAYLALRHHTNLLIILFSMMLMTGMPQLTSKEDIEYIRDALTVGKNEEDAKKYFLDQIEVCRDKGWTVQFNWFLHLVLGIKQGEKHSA

Sequence of Vps34 (Q8NEB9 whole entry, species assumed): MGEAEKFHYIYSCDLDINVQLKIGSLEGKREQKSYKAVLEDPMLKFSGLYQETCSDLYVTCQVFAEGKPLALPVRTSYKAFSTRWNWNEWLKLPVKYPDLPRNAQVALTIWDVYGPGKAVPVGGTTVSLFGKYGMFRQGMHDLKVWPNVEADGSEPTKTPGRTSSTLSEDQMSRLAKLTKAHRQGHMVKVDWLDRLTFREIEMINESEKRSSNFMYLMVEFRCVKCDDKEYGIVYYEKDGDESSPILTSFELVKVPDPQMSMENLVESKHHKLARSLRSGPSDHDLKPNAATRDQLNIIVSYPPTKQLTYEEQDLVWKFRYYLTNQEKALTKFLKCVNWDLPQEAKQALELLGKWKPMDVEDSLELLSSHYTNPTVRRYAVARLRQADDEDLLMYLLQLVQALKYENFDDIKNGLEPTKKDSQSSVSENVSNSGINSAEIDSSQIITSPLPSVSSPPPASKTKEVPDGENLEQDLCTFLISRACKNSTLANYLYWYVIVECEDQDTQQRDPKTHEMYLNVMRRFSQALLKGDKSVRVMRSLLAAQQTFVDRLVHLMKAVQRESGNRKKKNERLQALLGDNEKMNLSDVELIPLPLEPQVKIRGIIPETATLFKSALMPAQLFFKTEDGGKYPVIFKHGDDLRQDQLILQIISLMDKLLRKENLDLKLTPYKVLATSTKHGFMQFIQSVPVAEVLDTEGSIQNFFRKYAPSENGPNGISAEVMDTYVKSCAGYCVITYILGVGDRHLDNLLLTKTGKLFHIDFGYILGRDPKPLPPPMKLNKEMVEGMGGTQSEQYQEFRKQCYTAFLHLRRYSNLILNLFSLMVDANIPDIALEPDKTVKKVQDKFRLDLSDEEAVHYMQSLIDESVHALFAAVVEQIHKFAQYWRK
Experimental for mTOR: Lanthascreen™ Kinase Binding Assay for mTOR (G)
Binding of an inhibitor to the kinase competes for binding with the tracer, resulting in a loss of FRET.
50 nL of compound dilutions were dispensed onto white 384-well small volume polystyrene plate.

Take `Cc1ccc(S(=O)(=O)NCC(C)(C)O)cc1-c1cnc(N)c(-n2cncn2)n1` [Example 6, 3-(5-Amino-6-(1H-1,2,4-triazol-1-yl)pyrazin-2-yl)-N-(2-hydroxy-2-methylpropyl)-4-methylbenzenesulfonamide]: the IC50 (as a rule, the concentration needed to halve the response being measured) is 9010 nM on mTOR; greater than 9400 nM at Vps34; 2310 nM at PI 3-kinase beta [1]; 7120 nM on PI 4-kinase beta; 7280 nM at PI 3-kinase beta [2].

Take `Cc1ncc(-c2nc(-c3cc(S(=O)(=O)NCC(C)(C)O)ccc3C)cnc2N)s1` [Example 7, 3-(5-Amino-6-(2-methylthiazol-5-yl)pyrazin-2-yl)-N-(2-hydroxy-2-methylpropyl)-4-methylbenzenesulfonamide]: the IC50 on mTOR was found to be 920 nM; at Vps34, 390 nM; at PI 3-kinase beta [1] it was 990 nM; on PI 4-kinase beta it was 1950 nM; on PI 3-kinase beta [2], 3460 nM.

`Cc1ncc(-c2nc(-c3cc(S(=O)(=O)NCCCO)ccc3C)cnc2N)s1` [Example 10, 3-(5-Amino-6-(2-methylthiazol-5-yl)pyrazin-2-yl)-N-(3-hydroxypropyl)-4-methylbenzenesulfonamide]: the IC50 stood at 1880 nM at mTOR; 210 nM at Vps34; 60 nM at PI 3-kinase delta [3] (read-out: Assay F PI3Kδ IC50); 890 nM on PI 3-kinase beta [1]; 600 nM at PI 3-kinase delta [4]; 1890 nM on PI 4-kinase beta. The IC50 on PI 3-kinase beta [2] was 6310 nM.

For the compound `Cc1ccc(S(=O)(=O)NCC(C)(C)O)cc1-c1cnc(N)c(-c2cnn(C)n2)n1` [Example 18, 3-[5-Amino-6-(2-methyl-2H-[1,2,3]triazol-4-yl)-pyrazin-2-yl]-N-(2-hydroxy-2-methyl-propyl)-4-methyl-benzenesulfonamide], the concentration for half-maximal inhibition (IC50) on mTOR was 5550 nM; at Vps34, greater than 10000 nM; on PI 3-kinase beta [1], 2800 nM; at PI 4-kinase beta it was 8600 nM; at PI 3-kinase beta [2] it was 2600 nM.

Turning to `Cc1ccc(S(=O)(=O)NCC(C)(C)O)cc1-c1cnc(N)c(-c2nn(C)nc2C)n1` [Example 19, 3-[5-Amino-6-(2,5-dimethyl-2H-[1,2,3]triazol-4-yl)-pyrazin-2-yl]-N-(2-hydroxy-2-methyl-propyl)-4-methyl-benzenesulfonamide], the IC50 on mTOR was 420 nM; on PI 3-kinase delta [3] (read-out: Assay F PI3Kδ IC50) it was 20 nM; on PI 3-kinase beta [1] it was 140 nM; on PI 3-kinase delta [4] it was 70 nM; at PI 4-kinase beta, 3850 nM; at PI 3-kinase beta [2], 280 nM.

In the case of `Cc1cc(C)c(S(=O)(=O)NCC(C)(C)O)cc1-c1cnc(N)c(-n2cncn2)n1` [Example 121, 5-(5-Amino-6-(1H-1,2,4-triazol-1-yl)pyrazin-2-yl)-N-(2-hydroxy-2-methylpropyl)-2,4-dimethylbenzenesulfonamide], the IC50 at mTOR was 5200 nM; on PI 3-kinase alpha, 120 nM; on Vps34, greater than 10000 nM; at PI 3-kinase gamma, 92 nM; at PI 3-kinase delta [3] (read-out: Assay F PI3Kδ IC50), 960 nM; at PI 3-kinase beta [1], 1200 nM. Also, the IC50 at PI 4-kinase beta came out at 510 nM. In data set [5], the “Assay M RLM CI(int)” value came out at 31 µL/min/mg.

With `Cc1ccc(S(=O)(=O)NC2CCC(CO)CC2)cc1-c1cnc(N)c(-n2cncn2)n1` (stereo not shown) [Example 127.6], the IC50 at mTOR was greater than 10000 nM; on PI 3-kinase alpha, 390 nM; on Vps34, greater than 10000 nM; on PI 3-kinase gamma it was 160 nM; at PI 3-kinase delta [3] (read-out: Assay F PI3Kδ IC50), 1500 nM; at PI 3-kinase beta [1], 2200 nM. Moreover, the IC50 on PI 4-kinase beta was greater than 10000 nM. In data set [5], the “Assay M RLM CI(int)” value was found to be 20 µL/min/mg.

Regarding `Cc1ccc(S(=O)(=O)N2CCC(F)(F)CC2)cc1-c1cnc(N)c(-n2cncn2)n1` [Example 127.33], the IC50 at mTOR was greater than 10000 nM; on PI 3-kinase alpha it was 740 nM; at Vps34 it was greater than 10000 nM; on PI 3-kinase gamma, 170 nM; on PI 3-kinase delta [3] (read-out: Assay F PI3Kδ IC50) it was 8700 nM; on PI 3-kinase beta [1] it was greater than 10000 nM. Moreover, the IC50 at PI 4-kinase beta is greater than 10000 nM. Besides, the “Assay M RLM CI(int)” value in data set [5] was found to be 560 µL/min/mg.

Consider `Cc1ccc(S(=O)(=O)N2CCC(F)CC2)cc1-c1cnc(N)c(-n2cncn2)n1` [Example 127.34], for which the IC50 was greater than 10000 nM at mTOR; 1500 nM on PI 3-kinase alpha; greater than 10000 nM at Vps34; 180 nM at PI 3-kinase gamma; 3200 nM at PI 3-kinase delta [3] (read-out: Assay F PI3Kδ IC50); 5300 nM at PI 3-kinase beta [1]. In addition, the IC50 at PI 4-kinase beta was found to be 3000 nM. The “Assay M RLM CI(int)” value in [5] is 641 µL/min/mg.

Turning to `Cc1cc(-c2nc(-c3cc(S(=O)(=O)NC[C@@H](C)O)ccc3C)cnc2N)ccn1` [Example 129, (R)-3-(5-Amino-6-(2-methylpyridin-4-yl)pyrazin-2-yl)-N-(2-hydroxypropyl)-4-methyl benzene sulfonamide trifluoroacetic acid salt], the half-maximal inhibitory concentration (IC50) is greater than 9100 nM at mTOR; 130 nM at PI 3-kinase alpha; greater than 9100 nM at Vps34; 24 nM on PI 3-kinase gamma; 550 nM on PI 3-kinase delta [3] (read-out: Assay F PI3Kδ IC50); 7300 nM at PI 3-kinase beta [1]. Also, at PI 4-kinase beta, the IC50 is greater than 9100 nM. Further, the “Assay M RLM CI(int)” value in data set [5] is 28 µL/min/mg.

`Cc1cc(-c2nc(-c3cc(S(=O)(=O)NC[C@H](C)O)ccc3C)cnc2N)ccn1` [Example 129.9, (S)-3-(5-amino-6-(2-methylpyridin-4-yl)pyrazin-2-yl)-N-(2-hydroxypropyl)-4-methylbenzenesulfonamide]: the IC50 was greater than 9100 nM on mTOR; 420 nM at PI 3-kinase alpha; greater than 9100 nM at Vps34; 45 nM on PI 3-kinase gamma; 940 nM at PI 3-kinase delta [3] (read-out: Assay F PI3Kδ IC50); 6900 nM on PI 3-kinase beta [1]. The half-maximal inhibitory concentration (IC50) on PI 4-kinase beta is greater than 9100 nM. Further, the “Assay M RLM CI(int)” value in data set [5] stood at 20 µL/min/mg.

`Cc1cc(-c2nc(-c3cc(S(=O)(=O)NCC(C)(C)CN(C)C)ccc3C)cnc2N)ccn1` [Example 129.24, 3-(5-amino-6-(2-methylpyridin-4-yl)pyrazin-2-yl)-N-(3-(dimethylamino)-2,2-dimethylpropyl)-4-methylbenzenesulfonamide]: the IC50 at mTOR is greater than 9100 nM; at PI 3-kinase alpha, greater than 9100 nM; on Vps34 it was greater than 9100 nM; at PI 3-kinase gamma, 200 nM; at PI 3-kinase delta [3] (read-out: Assay F PI3Kδ IC50) it was 6600 nM; on PI 3-kinase beta [1], greater than 9100 nM. Further, the IC50 on PI 4-kinase beta was greater than 9100 nM. Moreover, the “Assay M RLM CI(int)” value in [5] was 755 µL/min/mg.

`Cc1cc(-c2nc(-c3cc(S(=O)(=O)NCCN4CCOCC4)ccc3C)cnc2N)ccn1` [Example 129.28, 3-(5-amino-6-(2-methylpyridin-4-yl)pyrazin-2-yl)-4-methyl-N-(2-morpholinoethyl)benzenesulfonamide]: the half-maximal inhibitory concentration (IC50) was greater than 9100 nM on mTOR; 260 nM on PI 3-kinase alpha; greater than 9100 nM at Vps34; 140 nM on PI 3-kinase gamma; 1100 nM on PI 3-kinase delta [3] (read-out: Assay F PI3Kδ IC50); 5300 nM on PI 3-kinase beta [1]. Also, on PI 4-kinase beta, the IC50 is greater than 9100 nM. Also, the “Assay M RLM CI(int)” value in data set [5] worked out at 159 µL/min/mg.

Take `Cc1cc(-c2nc(-c3cc(S(=O)(=O)NCC(C)(C)N4CCOCC4)ccc3C)cnc2N)ccn1` [Example 129.29, 3-(5-amino-6-(2-methylpyridin-4-yl)pyrazin-2-yl)-4-methyl-N-(2-methyl-2-morpholinopropyl)benzenesulfonamide]: the concentration for half-maximal inhibition (IC50) was 6000 nM on mTOR; 690 nM at PI 3-kinase alpha; greater than 9100 nM at Vps34; 140 nM at PI 3-kinase gamma; 1200 nM on PI 3-kinase delta [3] (read-out: Assay F PI3Kδ IC50); 5400 nM on PI 3-kinase beta [1]. Moreover, the 50% inhibitory concentration (IC50) at PI 4-kinase beta was greater than 9100 nM. In addition, the “Assay M RLM CI(int)” value in data set [5] was greater than 924 µL/min/mg.

Regarding `Cc1cc(-c2nc(-c3cc(S(=O)(=O)N[C@@H]4CCC[C@H]4N)ccc3C)cnc2N)ccn1` [Example 129.39, 3-(5-amino-6-(2-methylpyridin-4-yl)pyrazin-2-yl)-N-((1R,2R)-2-aminocyclopentyl)-4-methylbenzenesulfonamide], the IC50 was greater than 9100 nM at mTOR; 730 nM at PI 3-kinase alpha; greater than 9100 nM at Vps34; 110 nM at PI 3-kinase gamma; 910 nM against PI 3-kinase delta [3]; 7500 nM on PI 3-kinase beta [1]. Moreover, at PI 4-kinase beta, the IC50 is greater than 9100 nM. The “Assay M RLM CI(int)” value in data set [5] was greater than 924 µL/min/mg.

As for `Cc1cc(-c2nc(-c3cc(S(=O)(=O)N4CCC(N)CC4)ccc3C)cnc2N)ccn1` [Example 129.41, 5-(5-(4-aminopiperidin-1-ylsulfonyl)-2-methylphenyl)-3-(2-methylpyridin-4-yl)pyrazin-2-amine], the IC50 was greater than 9100 nM at mTOR; 1600 nM at PI 3-kinase alpha; greater than 9100 nM on Vps34; 320 nM at PI 3-kinase gamma; 2300 nM on PI 3-kinase delta [3] (read-out: Assay F PI3Kδ IC50); 4000 nM on PI 3-kinase beta [1]. On PI 4-kinase beta, the IC50 was greater than 9100 nM. Besides, the “Assay M RLM CI(int)” value in data set [5] was 13 µL/min/mg.

On to `Cc1ccc(S(=O)(=O)NCC(N)=O)cc1-c1cnc(N)c(-n2cncn2)n1` [Example 133, 2-(3-(5-Amino-6-(1H-1,2,4-triazol-1-yl)pyrazin-2-yl)-4-methylphenylsulfonamido)acetamide], for which the IC50 on mTOR is greater than 9550 nM; on PI 3-kinase alpha, 1020 nM; on Vps34, greater than 9550 nM; on PI 3-kinase gamma, 110 nM; at PI 3-kinase delta [3] (read-out: Assay F PI3Kδ IC50) it was 1140 nM; on PI 3-kinase beta [1], 7800 nM. Further, the IC50 at PI 4-kinase beta amounted to 8900 nM. Also, the “Assay M RLM CI(int)” value in data set [5] turned out to be 19 µL/min/mg.
